This data set in a line: pH-dependent solubility profile of Compound II. It counts as physicochemical. The conditions noted are these: particularly between pH 1-4.

For `COC(=O)N[C@H](C(=O)N1CCC[C@H]1c1ncc(-c2cc(F)c3c(c2)O[C@@H](c2cnc(C4CC4)s2)n2c-3cc3cc(-c4cnc([C@@H]5CCCN5C(=O)[C@@H](NC(=O)OC)C(C)C)[nH]4)ccc32)[nH]1)C(C)C` [Compound II, dimethyl ((2S,2′S)-((2S,2′S)-2,2′-(5,5′-((S)-6-(2-cyclopropylthiazol-5-yl)-1-fluoro-6H-benzo[5,6][1,3]oxazino[3,4-a]indole-3,10-diyl)bis(1H-imidazole-5,2-diyl))bis(pyrrolidine-2,1-diyl))bis(3-methyl-1-oxobutane-2,1-diyl))dicarbamate], the solubility profile entry is “sharp pH-dependent solubility profile”.

The values are drawn from patent publication US20180228827A1, “FIXED-DOSE COMBINATIONS OF ANTIVIRAL COMPOUNDS” (MERCK SHARP & DOHME CORP., priority 2015, published 2018).
